15 compounds from patent US6683101B2, “Bicyclic cyclohexylamines and their use as NMDA receptor antagonists” (Warner-Lambert Company, priority 2000, dated 2004) can be followed below.

Counter-ions that a name gives are not always drawn. A value given as a limit tells only on which side of the number the result lay.

Chain of NR2A/NR2B (Q00960 27-1482, other chains not shown): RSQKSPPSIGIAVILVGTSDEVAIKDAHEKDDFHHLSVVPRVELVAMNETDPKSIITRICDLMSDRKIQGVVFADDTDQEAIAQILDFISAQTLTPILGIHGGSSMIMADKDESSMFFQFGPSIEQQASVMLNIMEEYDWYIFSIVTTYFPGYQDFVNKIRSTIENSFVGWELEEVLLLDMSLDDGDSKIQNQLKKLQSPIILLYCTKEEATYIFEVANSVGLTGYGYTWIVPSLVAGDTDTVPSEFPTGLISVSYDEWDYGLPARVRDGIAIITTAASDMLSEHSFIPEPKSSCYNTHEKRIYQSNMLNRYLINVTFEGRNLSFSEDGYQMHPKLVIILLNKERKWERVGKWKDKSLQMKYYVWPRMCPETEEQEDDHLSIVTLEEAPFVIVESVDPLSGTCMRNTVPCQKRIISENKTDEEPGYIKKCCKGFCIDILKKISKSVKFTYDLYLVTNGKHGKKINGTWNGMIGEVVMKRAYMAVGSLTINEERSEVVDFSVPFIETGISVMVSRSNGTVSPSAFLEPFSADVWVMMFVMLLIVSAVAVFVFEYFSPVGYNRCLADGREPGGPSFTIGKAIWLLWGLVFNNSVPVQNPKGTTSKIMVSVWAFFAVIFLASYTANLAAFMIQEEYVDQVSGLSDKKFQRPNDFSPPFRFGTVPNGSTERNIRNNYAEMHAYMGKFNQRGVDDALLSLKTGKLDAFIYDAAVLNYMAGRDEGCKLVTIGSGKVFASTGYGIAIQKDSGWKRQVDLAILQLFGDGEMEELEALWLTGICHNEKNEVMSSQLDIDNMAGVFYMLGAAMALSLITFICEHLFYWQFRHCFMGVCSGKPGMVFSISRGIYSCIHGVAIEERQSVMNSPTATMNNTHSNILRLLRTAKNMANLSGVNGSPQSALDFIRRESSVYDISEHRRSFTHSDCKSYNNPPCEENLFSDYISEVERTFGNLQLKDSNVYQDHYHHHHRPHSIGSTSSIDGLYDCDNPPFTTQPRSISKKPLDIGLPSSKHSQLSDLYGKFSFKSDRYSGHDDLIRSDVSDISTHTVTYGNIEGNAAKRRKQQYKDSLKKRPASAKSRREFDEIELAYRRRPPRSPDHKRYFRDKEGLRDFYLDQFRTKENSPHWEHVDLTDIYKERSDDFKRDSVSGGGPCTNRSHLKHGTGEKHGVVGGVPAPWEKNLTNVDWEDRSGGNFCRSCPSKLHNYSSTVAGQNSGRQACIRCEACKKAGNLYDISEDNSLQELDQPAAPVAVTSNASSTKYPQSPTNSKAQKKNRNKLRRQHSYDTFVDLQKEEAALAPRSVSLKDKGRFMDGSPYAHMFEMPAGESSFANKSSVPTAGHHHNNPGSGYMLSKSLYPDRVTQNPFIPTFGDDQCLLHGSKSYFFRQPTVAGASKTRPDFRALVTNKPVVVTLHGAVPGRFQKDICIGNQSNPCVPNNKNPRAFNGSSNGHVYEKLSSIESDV
T1 sequence (Q00960 27-1482, other chains not shown): as above

For the first data set, the target named is NR2A/NR2B (Rattus norvegicus, UniProt Q00960). Briefly: Electrophysiological assay at NMDA receptor subunits expressed in Xenopus oocytes (two-electrode voltage clamp). The conditions noted are these: cloned rat NMDA receptor subunits in Xenopus oocytes; currents activated by glutamate (100 μM) and glycine (1-100 μM); read-out: NR2A/NR2B Oocyte IC50. The format is cell-based. The source says:
Electrophysiological Assays at NMDA Receptor Subunits
Preparation of RNA. cDNA clones encoding the NR1A, NR2A, NR2B, and NR2C rat NMDA receptor subtypes were used (see, Moriyoshi et al. Nature (Lond), 1991;354:31-37; Kutsuwada et al. Nature (Lond), 1992;358:36-41; Monyer et al. Science (Washington, D.C.), 1992;256:1217-1221; Ikeda et al. FEBS Lett., 1992;313:34-38; Ishii et al. J. Biol. Chem., 1993;268:2836-2843 for details of these clones or their mouse homologs). The clones were transformed into appropriate host bacteria, and plasmid preparations were made with conventional DNA purification techniques. A sample of each clone was linearized by restriction enzyme digestion of […] and was synthesized with T3 RNA polymerase. The cRNA was diluted to 400 ng/μL and stored in 1 μL aliquots at −80° C. until injection.
The Xenopus oocyte expression system. Mature female Xenopus laevis were anaesthetized (20-40 minutes) using 0.15% 3-aminobenzoic acid ethyl ester (MS-222), and 2-4 ovarian lobes were surgically removed. Oocytes at developmental stages IV-VI (Dumont J. N. J. Morphol., 1972;136:153-180) were dissected from the ovary still surrounded by enveloping ovarian tissues. Follicle-enclosed oocytes were micro-injected with 1:1 mixtures of NR1A:NR2A, 2B, or 2C; injecting 1 to 10 ng of RNA encoding each receptor subunit. NR1A encoding RNA was injected alone at ˜20 ng. Oocytes were stored in Barth's medium containing (in mM): NaCl, 88; KCl, 1; CaCl2, 0.41; Ca (NO3)2, 0.33; MgSO4, 0.82; NaHCO3, 2.4; HEPES 5, pH 7.4, with 0.11 mg/ml gentamicin sulphate. While oocytes were still surrounded by enveloping ovarian tissues, the Barth's medium was supplemented with 0.1% bovine serum. […]
Electrical recordings were made using a conventional two-electrode voltage clamp (Dagan TEV-200) over periods ranging between 3 to 21 days following injection. […] Using oocytes expressing different subunit combinations of NMDA receptor, NMDA currents were activated by co-application of glutamate (100 μM and glycine (1-100 μM). Inhibitory potency of the novel antagonists was assessed on responses elicited by fixed concentrations of glutamate and glycine, by measuring reductions in current induced by progressively increasing concentrations of antagonist. […]
In which Icontrol is the current evoked by agonists alone, pIC50=−log IC50, IC50 is the concentration of antagonist that produced half maximal inhibition, and n is the slope factor (De Lean et al. Am. J. Physiol., 1978;235:E97-102). For incomplete curves, analysis by fitting was unreliable, and IC50 values were calculated by simple regression over linear portions of the curves (Origin: Microcal Software).
(Two-electrode voltage clamp holds a large cell at a set potential and records current.)
`CN(CCN[C@H]1CC[C@H](c2ccccc2)CC1)c1ccc2[nH]c(=O)oc2c1` [Example 3, 6-{Methyl[2-(trans-4-phenylcyclohexylamino)ethyl]amino}-3H-benzoxazol-2-one]: the IC50 was determined as 1000 nM.

With `O=c1[nH]c2ccc(CCCN[C@H]3CC[C@H](c4ccc(F)cc4)CC3)cc2o1` [Example 2, 6-{3-[trans-4-(4-Fluorophenyl)cyclohexylamino]propyl}-3H-benzoxazol-2-one], the IC50 amounted to 120 nM. On to `O=c1[nH]c2ccc(OCCN[C@H]3CC[C@@H](c4ccccc4)CC3)cc2[nH]1` [Example 8a, 5-[2-(cis-4-Phenylcyclohexylamino)ethoxy]-1,3-dihydrobenzimidazol-2-one], for which the IC50 stood at 280 nM. With `O=c1[nH]c2ccc(OCCN[C@H]3CC[C@H](c4ccccc4)CC3)cc2[nH]1` [Example 8b, 5-[2-(trans-4-Phenylcyclohexylamino)ethoxy]-1,3-dihydrobenzimidazol-2-one], the IC50 came out at 120 nM.

Tested on in another data set: not given
Assay: not given
Conditions: not given
Usually melting point stands for the temperature, or range, at which the solid turns liquid. The compound `CCN(CCCc1ccc2[nH]c(=O)oc2c1)[C@H]1CC[C@H](c2ccc(F)cc2)CC1` (as salt: HCl) [Example 7, 6-(3-{[trans-4-(4-Fluorophenyl)cyclohexyl]ethylamino}propyl)-3H-benzoxazol-2-one] displayed a melting point of 99 to 109 °C. Still for that read-out and setting: with `O=c1[nH]c2ccc(CCCN[C@H]3CC[C@H](c4ccccc4)CC3)cc2o1` [Example 1, 6-[3-(trans-4-Phenylcyclohexylamino)propyl]-3H-benzoxazol-2-one] the figure was 218 to 223 °C; with `O=c1[nH]c2ccc(CCCN[C@H]3CC[C@H](c4ccc(F)cc4)CC3)cc2o1` (as salt: HCl) [Example 2, 6-{3-[trans-4-(4-Fluorophenyl)cyclohexylamino]propyl}-3H-benzoxazol-2-one], 295 to 303 °C. In the case of `CN(CCCc1ccc2[nH]c(=O)oc2c1)[C@H]1CC[C@H](c2ccc(F)cc2)CC1` (as salt: HCl) [Example 6, 6-(3-{[trans-4-(4-Fluorophenyl)cyclohexyl]methylamino}propyl)-3H-benzoxazol-2-one], the melting point lay in the range of 235 to 241 °C. As to `CN(CCN[C@H]1CC[C@H](c2ccccc2)CC1)c1ccc2[nH]c(=O)oc2c1` (as salt: HCl) [Example 3, 6-{Methyl[2-(trans-4-phenylcyclohexylamino)ethyl]amino}-3H-benzoxazol-2-one], the melting point is 229 to 234 °C. Turning to `O=c1[nH]c2ccc(OCCN[C@H]3CC[C@H](c4ccccc4)CC3)cc2[nH]1` (as salt: HCl) [Example 8b, 5-[2-(trans-4-Phenylcyclohexylamino)ethoxy]-1,3-dihydrobenzimidazol-2-one], the melting point was 315 to 320 °C. `O=c1[nH]c2ccc(OCCN[C@H]3CC[C@@H](c4ccccc4)CC3)cc2[nH]1` (as salt: HCl) [Example 8a, 5-[2-(cis-4-Phenylcyclohexylamino)ethoxy]-1,3-dihydrobenzimidazol-2-one] displayed a melting point of 232 to 237 °C.

The next data set has as its target T1, NMDA receptor ([3H]ifenprodil binding site) (Rattus norvegicus, UniProt P35439+Q00960).
T1 construct: tissue Zivic-Miller Laboratories, Inc; host or cells: adult rat forebrain, washed buffy coat membrane fraction
Nature of the data set: [3H]Ifenprodil binding assay, rat forebrain membranes. The conditions noted are these: adult rat forebrain membranes, 4 nM [3H]-ifenprodil, 2 hours at room temperature, pH 7.4. How it is done: [^3H]Ifenprodil Binding Assay Protocol:
All buffers and reagents used in assay incubations or to dissolve drugs were prepared using water purified through a Milli-Q reverse osmosis system (Millipore Corp, Bedford, Mass.) and treated with UV emissions. Prior to use in the assays, buffers were further filtered through a sterile Corning filtration unit (Corning Glass Works, Corning, N.Y.) containing a 0.2 micron filter. Buffer used to rinse the membranes on the assay filters was prepared with purified water, but was not refiltered and was stored no longer than 5 days. Stock solutions of the drugs (usually 10 mM) were dissolved in 20 mM HEPES-KOH buffer pH 7.4 (assay buffer) with the addition of 1 to 5 μL of glacial AcOH, if needed, to keep them in solution. For eliprodil, the stock solution was buffer with the addition of 10% DMSO. All subsequent dilutions from stock were made in buffer.
An extensively washed buffy coat membrane fraction was prepared from frozen adult rat forebrains (Zivic-Miller Laboratories, Inc, Zelienople, Pa.) as described previously (Coughenour L. L., Cordon J. J. J. Pharmacol Exp. Ther., 1997;280:584-592) and stored at −80° C. On the day of the assay, pellets were resuspended in 35 mL of assay buffer at pH 7.4 using a Polytron setting 6. After incubation at 37° C. for 30 minutes in a shaking water bath, the homogenate was centrifuged 40,000×g for 10 minutes at 4° C. The pellets were resuspended in fresh buffer and centrifuged 3 more times before final suspension for use in the assay.
[^3H]Ifenprodil Binding. Triplicate incubations were carried out in a volume of 0.5 mL in 1.3 mL polypropylene tubes (Marsh Biomedical Products Inc, Rochester, N.Y.) for 2 hours at room temperature. Incubations contained test agents, membranes (100-200 μg protein), and 4 nM [^3H]-ifenprodil in 20 mM HEPES-KOH buffer, pH 7.4 (assay buffer). Assays were started by addition of the membranes. Bound radioligand was separated by filtration under reduced pressure Using a Tomtec Mach II, 96-well cell harvester (Tomtec Inc, Orange, Colo.). Filtration was through Whatman GF/B glass fiber filters (Whatman Ltd, Maidstone, England), which had been soaked for at least 15 minutes in 0.3% polyethylenimine and allowed to air dry. The filters were rinsed with 3 mL of ice cold assay buffer within 6 seconds. Air was allowed to pass through the filters for an additional 10 seconds to remove residual moisture. The filter mat was supported on a cold (−20° C.) teflon support, and filters from individual wells were separated and placed in Mini Poly-Q vials (Beckman Instrrnents Inc, Fullerton, Calif.) and filled with 4 mL of scintillation cocktail (Beckman Ready Protein^+). Radioactivity retained on the filter was determined by liquid scintillation spectrophotometry. Nonspecific binding was defined as the binding in the presence of 1 mM ifenprodil. Specific binding was 90%.
Data analysis. Binding curves were statistically analyzed for a best one or two site competition fit using GraphPad Prism software (GraphPad Software Inc, San Diego, Calif.). The normalized data was fit by nonweighted nonlinear regression to either [formula]
Control data was entered as 100%, and no parameters were constrained. Inhibition curves were compared by ANOVA with post test comparisons of the logIC50 using Dunnett's multiple comparisons post test or Student's nonpaired, two-tailed t-test (GraphPad InStat software).
With `CCN(CCCc1ccc2[nH]c(=O)oc2c1)[C@H]1CC[C@H](c2ccc(F)cc2)CC1` [Example 7, 6-(3-{[trans-4-(4-Fluorophenyl)cyclohexyl]ethylamino}propyl)-3H-benzoxazol-2-one], the IC50 was greater than 1000 nM. Turning to `CN(CCCc1ccc2[nH]c(=O)oc2c1)[C@H]1CC[C@H](c2ccc(F)cc2)CC1` [Example 6, 6-(3-{[trans-4-(4-Fluorophenyl)cyclohexyl]methylamino}propyl)-3H-benzoxazol-2-one], the IC50 worked out at 730 nM.

`O=c1[nH]c2ccc(CCCN[C@H]3CC[C@H](c4ccccc4)CC3)cc2o1` [Example 1, 6-[3-(trans-4-Phenylcyclohexylamino)propyl]-3H-benzoxazol-2-one] registered an IC50 of 53 nM. `O=c1[nH]c2ccc(SCCN[C@H]3CC[C@H](c4ccccc4)CC3)cc2o1` [Example 4, 6-[2-(trans-4-Phenylcyclohexylamino)ethylsulfanyl]-3H-benzoxazol-2-one]: the IC50 is 91 nM.

With `CN(CC(O)c1ccc2[nH]c(=O)[nH]c2c1)[C@H]1CC[C@H](c2ccccc2)CC1` (stereo partly drawn) [Example 5, 5-{1-Hydroxy-2-[methyl(trans-4-phenylcyclohexyl)amino]ethyl}-1,3-dihydrobenzimidazol-2-one], the IC50 was 1760 nM.
